# Data as given in patent EP0452101B1, “Spiro bridged and unbridged heterocyclic compounds” (ISRAEL INSTITUTE FOR BIOLOGICAL RESEARCH, priority 1990, dated 1991).
# Like-named read-outs stand apart in the source and are kept apart here.
# Key:
# [1] = system: Male white mice of the CD-1 strain; assay: Pharmacodynamic profile and general toxicity, Part B (signs, mortality, LD50); type: in vivo; set-up: key to Altered spontaneous motor activity (Mot): increased (inc); decreased (dec); key to Piloerection (Pil) / Hypothermia (Hyp) / Salivation (Sal) / Lacrimation (Lac) / Diarrhea (Dia) / Mydriasis (Myd): sli = slight; mod = moderate; sev = severe; settings: for Analgesia (Ana) / Convulsive seizure (Con) / Respiratory distress (Res) / Tremors (Tre): animals affected/treated
# Source text: Male white mice of the CD-1 strain (Charles River, UK), within the body weight range of 18-26 g, were used throughout this study, carried out on AF123, AF125 and AF125(N).
# Furthermore, these initial trials clearly established that the major signs of reactions to treatment consisted primarily of signs characteristic for potential cholinomimetic activity of the test material, such as tremors, salivation, lacrimation, diarrhea, analgesia, hypothermia and vasodilation. […]
# [2] = system: Mice, Male CD strain
structure (smiles),measurement,setting,value
"CC1=NCC2(CN3CCC2CC3)O1 (racemic) [AF125, 2-Methyl-spiro(1,3 oxazoline-5,3')quinuclidine]",Altered spontaneous motor activity (Mot),[1]; 5 mg/kg i.v.,dec
same,Lacrimation (Lac),[1]; 5 mg/kg i.v.,sli
same,Mydriasis (Myd),[1]; 5 mg/kg i.v.,sli
same,Salivation (Sal),[1]; 5 mg/kg i.v.,sli
same,Analgesia (Ana),[1]; 5 mg/kg i.v.,5/5
same,Convulsive seizure (Con),[1]; 5 mg/kg i.v.,0/5
same,Respiratory distress (Res),[1]; 5 mg/kg i.v.,0/5
same,Tremors (Tre),[1]; 5 mg/kg i.v.,0/5
same,Altered spontaneous motor activity (Mot),[1]; 10 mg/kg i.v.,dec
same,Diarrhea (Dia),[1]; 10 mg/kg i.v.,sli
same,Hypothermia (Hyp),[1]; 10 mg/kg i.v.,sli
same,Lacrimation (Lac),[1]; 10 mg/kg i.v.,sli
same,Mydriasis (Myd),[1]; 10 mg/kg i.v.,sli
same,Piloerection (Pil),[1]; 10 mg/kg i.v.,sli
same,Salivation (Sal),[1]; 10 mg/kg i.v.,mod
same,Analgesia (Ana),[1]; 10 mg/kg i.v.,5/5
same,Convulsive seizure (Con),[1]; 10 mg/kg i.v.,0/5
same,Respiratory distress (Res),[1]; 10 mg/kg i.v.,0/5
same,Tremors (Tre),[1]; 10 mg/kg i.v.,0/5
same,Convulsive seizure (Con),[1]; 10 mg/kg p.os,0/5
same,Respiratory distress (Res),[1]; 10 mg/kg p.os,0/5
same,Tremors (Tre),[1]; 10 mg/kg p.os,0/5
same,Altered spontaneous motor activity (Mot),"[1]; 20 mg/kg i.v., Table 9",dec
same,Diarrhea (Dia),"[1]; 20 mg/kg i.v., Table 9",mod
same,Hypothermia (Hyp),"[1]; 20 mg/kg i.v., Table 9",mod
same,Lacrimation (Lac),"[1]; 20 mg/kg i.v., Table 9",sev
same,Mydriasis (Myd),"[1]; 20 mg/kg i.v., Table 9",mod
same,Piloerection (Pil),"[1]; 20 mg/kg i.v., Table 9",mod
same,Salivation (Sal),"[1]; 20 mg/kg i.v., Table 9",sev
same,Analgesia (Ana),"[1]; 20 mg/kg i.v., Table 9",5/5
same,Convulsive seizure (Con),"[1]; 20 mg/kg i.v., Table 9",0/5
same,Respiratory distress (Res),"[1]; 20 mg/kg i.v., Table 9",1/5
same,Tremors (Tre),"[1]; 20 mg/kg i.v., Table 9",2/5
same,Lacrimation (Lac),[1]; 20 mg/kg p.os,sli
same,Salivation (Sal),[1]; 20 mg/kg p.os,sli
same,Analgesia (Ana),[1]; 20 mg/kg p.os,0/5
same,Convulsive seizure (Con),[1]; 20 mg/kg p.os,0/5
same,Respiratory distress (Res),[1]; 20 mg/kg p.os,0/5
same,Tremors (Tre),[1]; 20 mg/kg p.os,0/5
same,Altered spontaneous motor activity (Mot),[1]; 40 mg/kg i.v.,dec
same,Diarrhea (Dia),[1]; 40 mg/kg i.v.,mod
same,Hypothermia (Hyp),[1]; 40 mg/kg i.v.,mod
same,Lacrimation (Lac),[1]; 40 mg/kg i.v.,sev
same,Mydriasis (Myd),[1]; 40 mg/kg i.v.,mod
same,Piloerection (Pil),[1]; 40 mg/kg i.v.,mod
same,Salivation (Sal),[1]; 40 mg/kg i.v.,sev
same,Analgesia (Ana),[1]; 40 mg/kg i.v.,5/5
same,Convulsive seizure (Con),[1]; 40 mg/kg i.v.,1/5
same,Respiratory distress (Res),[1]; 40 mg/kg i.v.,3/5
same,Tremors (Tre),[1]; 40 mg/kg i.v.,5/5
same,Altered spontaneous motor activity (Mot),[1]; 40 mg/kg p.os,dec
same,Diarrhea (Dia),[1]; 40 mg/kg p.os,sli
same,Hypothermia (Hyp),[1]; 40 mg/kg p.os,sli
same,Lacrimation (Lac),[1]; 40 mg/kg p.os,mod
same,Piloerection (Pil),[1]; 40 mg/kg p.os,sli
same,Salivation (Sal),[1]; 40 mg/kg p.os,sli
same,Analgesia (Ana),[1]; 40 mg/kg p.os,3/5
same,Convulsive seizure (Con),[1]; 40 mg/kg p.os,0/5
same,Respiratory distress (Res),[1]; 40 mg/kg p.os,0/5
same,Tremors (Tre),[1]; 40 mg/kg p.os,0/5
same,Altered spontaneous motor activity (Mot),[1]; 50 mg/kg p.os,dec
same,Diarrhea (Dia),[1]; 50 mg/kg p.os,sli
same,Hypothermia (Hyp),[1]; 50 mg/kg p.os,sli
same,Lacrimation (Lac),[1]; 50 mg/kg p.os,mod
same,Mydriasis (Myd),[1]; 50 mg/kg p.os,sli
same,Piloerection (Pil),[1]; 50 mg/kg p.os,mod
same,Salivation (Sal),[1]; 50 mg/kg p.os,mod
same,Analgesia (Ana),[1]; 50 mg/kg p.os,5/5
same,Convulsive seizure (Con),[1]; 50 mg/kg p.os,0/5
same,Respiratory distress (Res),[1]; 50 mg/kg p.os,0/5
same,Tremors (Tre),[1]; 50 mg/kg p.os,2/5
same,LD50,"[1]; Intravenous Injection, 95% Confidence Limits 66.6 - 71.2",68.9 mg/kg
same,LD50,"[1]; Oral Administration, 95% Confidence Limits 118.4 - 152.5",134.4 mg/kg
"CC1=NCC2(CCN(C)CC2)O1 [AF150, 2-Methyl-spiro(1,3-oxazoline-5,4')-1'-methylpiperidine]",analgesia (tail pinch),"[2]; 1 mg./kg. i.p., any time of observation",No analgesia
same,analgesia (tail pinch),"[2]; 5 mg./kg i.p., 15 minutes after injection",Partial analgesia
same,analgesia (tail pinch),"[2]; 10 mg./kg. i.p., 15 and 30 minutes",complete
same,analgesia (tail pinch),"[2]; 10 mg./kg. i.p., ≥ 60 minutes",no analgesia
